Here are results for eight molecules from ChEMBL document CHEMBL1201862, “PubChem BioAssay data set” (2004).

Some test systems named below: SR; M14; A498; HCT-15; HT-29; UACC-62; UO-31; PC-3; Malme-3M; HCT-116; HOP-62; NCI/ADR-RES; CCRF-CEM; COLO 205; TK-10; MOLT-4; KM12; SNB-75; IGROV-1; SK-MEL-2.
Common to all, as to experiment: growth of human tumour cells (NCI), 48 h

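Following 48 hours of exposure in 96-well plates, responses at five concentrations were used to interpolate endpoints linearly. GI50 marks 50% less growth.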 The source made the active and inactive calls. Rule as the data show it: active = GI50 up to about 1.1 µM and inactive = higher. Where only a bound is given, the exact number is not on record here.

For `CN(Cc1cccc2ccsc12)/N=C\c1ccc(Cl)cc1`, the GI50 with SR is 18.4 µM (inactive); in the assay on M14, 79.4 µM (inactive); in the assay on A498, 93.3 µM (inactive); with HCT-15, 34.7 µM; in the assay on HT-29 it was 26.7 µM (inactive); with UACC-62 it was > 100 µM (inactive). Also, the GI50 in the assay on UO-31 was 78.3 µM (inactive); in the assay on PC-3, > 100 µM (inactive); in the assay on Malme-3M, > 100 µM (inactive); in the assay on HCT-116, 28.6 µM (inactive); with HOP-62 it was > 100 µM (inactive); with NCI/ADR-RES, > 100 µM (inactive). In addition, the GI50 in the assay with CCRF-CEM is 31.3 µM (inactive); with COLO 205 it was 74.8 µM (inactive); in the assay with TK-10, > 100 µM (inactive); in the assay on MOLT-4, 25.5 µM (inactive); with KM12, 58.5 µM (inactive); in the assay on SNB-75, 57.1 µM (inactive). Also, in the assay on IGROV-1, the GI50 was > 100 µM (inactive).
Consider `NC(=S)C1=C(N)Oc2c(c(=O)oc3ccccc23)C1c1ccc(Br)cc1` (stereo not given), for which the GI50 in the assay on SR was 1.61 µM (inactive); with M14, > 100 µM (inactive); in the assay on A498, 63.2 µM (inactive); with HCT-15, greater than 100 µM; in the assay on HT-29, > 100 µM (inactive); in the assay on UACC-62 it was > 100 µM (inactive). Besides, the GI50 in the assay with UO-31, in the assay with PC-3, in the assay on Malme-3M, in the assay on HCT-116, in the assay on HOP-62 and in the assay with NCI/ADR-RES was > 100 µM (inactive) each time. Also, the GI50 in the assay on CCRF-CEM was 36.3 µM (inactive); in the assay on COLO 205 it was > 100 µM (inactive); in the assay on TK-10 it was > 100 µM (inactive); in the assay on SNB-75, 82.6 µM (inactive); in the assay with IGROV-1 it was > 100 µM (inactive); in the assay with SK-MEL-2 it was > 100 µM (inactive).
Take `CCCC(CCN)(CCN)[N+](=O)[O-]`: the GI50 was > 100 µM (inactive) with SR; > 100 µM (inactive) in the assay with M14; > 100 µM (inactive) in the assay with A498; greater than 100 µM in the assay with HCT-15; > 100 µM (inactive) in the assay with HT-29; > 100 µM (inactive) in the assay on UACC-62. The GI50 in the assay on UO-31, in the assay with PC-3, in the assay on Malme-3M, with HCT-116, in the assay on NCI/ADR-RES and in the assay on CCRF-CEM was > 100 µM (inactive) each time. Besides, the GI50 in the assay on COLO 205 was > 100 µM (inactive); in the assay with TK-10, > 100 µM (inactive); with MOLT-4 it was > 100 µM (inactive); with KM12 it was > 100 µM (inactive); in the assay with SNB-75 it was 11.2 µM (inactive); in the assay on IGROV-1, > 100 µM (inactive). The GI50 with SK-MEL-2 was > 100 µM (inactive).
Consider `O=[N+]([O-])c1ccc2oc(=N/c3ccccc3)/c(=N\c3ccccc3)[nH]c2c1`, for which the GI50 is > 100 µM (inactive) in the assay with SR; 59.4 µM (inactive) in the assay on A498; greater than 100 µM in the assay with HCT-15; 87.3 µM (inactive) in the assay with HT-29; 58.7 µM (inactive) with UACC-62; 77.1 µM (inactive) in the assay with UO-31. Besides, the GI50 in the assay on PC-3 is 65.3 µM (inactive); in the assay on Malme-3M, 87.1 µM (inactive); in the assay on HCT-116, 48.2 µM (inactive); in the assay with HOP-62, 35 µM (inactive); with NCI/ADR-RES it was 51.1 µM (inactive); in the assay on CCRF-CEM, > 100 µM (inactive). The GI50 in the assay with COLO 205 is > 100 µM (inactive); in the assay with TK-10, 26.8 µM (inactive); in the assay with MOLT-4, > 100 µM (inactive); in the assay with KM12, 37.5 µM (inactive); in the assay with SNB-75, 18 µM (inactive); with IGROV-1 it was 32.1 µM (inactive). The GI50 in the assay on SK-MEL-2 is 36.7 µM (inactive).
On to `COc1cc(C(c2c(O)c3ccccc3oc2=O)c2c(O)c3ccccc3oc2=O)cc(Br)c1O`, for which the GI50 in the assay on SR was 14 µM (inactive); in the assay on M14 it was 16.8 µM (inactive); in the assay on A498, 15.9 µM (inactive); in the assay with HCT-15, 17.7 µM; in the assay on HT-29, 20 µM (inactive); in the assay with UACC-62, 16 µM (inactive). Besides, the GI50 was 16.4 µM (inactive) in the assay with UO-31; 19.1 µM (inactive) with PC-3; 16.8 µM (inactive) in the assay on Malme-3M; 17.5 µM (inactive) in the assay on HCT-116; 18.6 µM (inactive) with HOP-62; 23 µM (inactive) in the assay with NCI/ADR-RES. The GI50 with COLO 205 was 18.2 µM (inactive); with TK-10 it was 16.1 µM (inactive); with MOLT-4, 20.1 µM (inactive); in the assay with KM12, 17.5 µM (inactive); with SNB-75 it was 18.8 µM (inactive); with IGROV-1, 15.6 µM (inactive). Besides, the GI50 in the assay on SK-MEL-2 was 23.8 µM (inactive).
With `CC(C)N1CCN(c2ccc(OCC3COC(Cn4cncn4)(c4ccc(Cl)cc4Cl)O3)cc2)CC1` (stereo not given) [TERCONAZOLE], the GI50 in the assay with SR is 3.33 µM (inactive); in the assay with A498, 14 µM (inactive); in the assay with HCT-15 it was 9.53 µM; in the assay on HT-29 it was 3.62 µM (inactive); with UACC-62 it was 2.34 µM (inactive); in the assay with UO-31, > 21.9 µM (inactive). Moreover, the GI50 is 14.6 µM (inactive) with PC-3; 7.85 µM (inactive) with Malme-3M; 11.2 µM (inactive) in the assay on HCT-116; 13.8 µM (inactive) in the assay with HOP-62; 16.7 µM (inactive) in the assay with NCI/ADR-RES; 11.5 µM (inactive) with CCRF-CEM. Moreover, the GI50 was 1.9 µM (inactive) in the assay on COLO 205; 9.62 µM (inactive) in the assay with TK-10; 10.9 µM (inactive) in the assay on MOLT-4; 13.2 µM (inactive) in the assay on KM12; 12.8 µM (inactive) in the assay with SNB-75; 16 µM (inactive) in the assay with IGROV-1. Besides, the GI50 in the assay with SK-MEL-2 was 14.7 µM (inactive).
On to `CN1N(c2ccccc2)C(=O)C2=NC=C(C#N)C(=N)C21C` (stereo not given), for which the GI50 was 19.8 µM (inactive) in the assay with SR; > 100 µM (inactive) in the assay on M14; > 100 µM (inactive) in the assay with A498; greater than 100 µM with HCT-15; > 100 µM (inactive) with UACC-62; > 100 µM (inactive) with UO-31. The GI50 in the assay on PC-3, in the assay with Malme-3M, in the assay with HCT-116, in the assay on NCI/ADR-RES, with CCRF-CEM and with COLO 205 was > 100 µM (inactive) in each case. Also, the GI50 in the assay on TK-10, in the assay with MOLT-4, in the assay on KM12, in the assay with SNB-75, with IGROV-1 and in the assay on SK-MEL-2 was > 100 µM (inactive) throughout.
With `COc1cc(C(=O)/C=C/c2ccc(OCC#N)cc2)cc(OC)c1OC`, the GI50 in the assay on SR is 23.6 µM (inactive); in the assay on M14 it was > 10 µM (inactive); in the assay with A498, 21.4 µM (inactive); in the assay with HCT-15, 19.5 µM; with HT-29, 31.7 µM (inactive); in the assay on UACC-62, 21.2 µM (inactive). For the same molecule, the GI50 with UO-31 is 17.6 µM (inactive); in the assay with PC-3, 18.7 µM (inactive); in the assay with Malme-3M, 17.4 µM (inactive); in the assay on HCT-116, 13.9 µM (inactive); with HOP-62 it was 22.1 µM (inactive); with NCI/ADR-RES, 18 µM (inactive). In addition, the GI50 in the assay with CCRF-CEM was 19.4 µM (inactive); in the assay with COLO 205 it was 20 µM (inactive); with TK-10, 25.1 µM (inactive); in the assay with MOLT-4, 27 µM (inactive); in the assay with KM12 it was 16 µM (inactive); with SNB-75, > 10 µM (inactive). The GI50 in the assay with IGROV-1 is 38.4 µM (inactive).
